Data taken from patent publication US7122548B2, “Triazolotriazine compounds and uses thereof” (Sugen, Inc., priority 2003, dated 2006).

Biological target: T1, c-MET (Homo sapiens, UniProt P08581)
T1 construct: Purified GST fusion protein containing the Met kinase domain, Sugen, Inc
Assay: Met Transphosphorylation Assay (ELISA, poly(Glu,Tyr) 4:1 substrate)
Type: biochemical
Conditions: purified GST fusion protein containing the Met kinase domain
Description: Met Transphosphorylation Assay
This assay is used to measure phosphotyrosine levels on a poly(glutamic acid:tyrosine (4:1)) substrate as a means for identifying agonists/antagonists of met transphosphorylation of the substrate.
6. Purified GST fusion protein containing the Met kinase domain, Sugen, Inc.
8. 10% aqueous (MilliQue H2O) DMSO.
10. 2× Kinase Dilution Buffer: for 100 ml, mix 10 mL 1M HEPES at pH 7.5 with 0.4 mL 5% BSA/PBS, 0.2 mL 0.1 M sodium orthovanadate and 1 mL 5M sodium chloride in 88.4 mL dH2O.
11. 4× ATP Reaction Mixture: for 10 mL, mix 0.4 mL 1 M manganese chloride and 0.02 mL 0.1 M ATP in 9.56 mL dH2O.
12. 4× Negative Controls Mixture: for 10 mL, mix 0.4 mL 1 M manganese chloride in 9.6 mL dH2O.
15. Antibody Dilution Buffer: for 100 mL, mix 10 mL 5% BSA/PBS, 0.5 mL 5% Carnation Instant Milk® in PBS and 0.1 mL 0.1 M sodium orthovanadate in 88.4 mL TBST.
16. Rabbit polyclonal antophosphotyrosine antibody, Sugen, Inc.
17. Goat anti-rabbit horseradish peroxidase conjugated antibody, Biosource, Inc.
18. ABTS Solution: for 1 L, mix 19.21 g citric acid, 35.49 g Na2HPO4 and 500 mg ABTS with sufficient dH2O to make 1 L.
19. ABTS/H2O2: mix 15 mL ABST solution with 2pL H2O2 five minutes before use.
1. Coat ELISA plates with 2 μg Poly(Glu—Tyr) in 100 μL PBS, store overnight at 4° C.
2. Block plate with 150 μL of 5% BSA/PBS for 60 min.
3. Wash plate twice with PBS, once with 50 mM Hepes buffer pH 7.4.
4. Add 50 μl of the diluted kinase to all wells. (Purified kinase is diluted with Kinase Dilution Buffer. Final concentration should be 10 ng/well.)
5. Add 25 μL of the test compound (in 4% DMSO) or DMSO alone (4% in dH2O) for controls to plate.
6. Incubate the kinase/compound mixture for 15 minutes.
7. Add 25 μL of 40 mM MnCl2 to the negative control wells.
8. Add 25 μL ATP/MnCl2 mixture to the all other wells (except the negative controls). Incubate for 5 min.
9. Add 25 μL 500 mM EDTA to stop reaction.
10. Wash plate 3× with TBST.
11. Add 100 μL rabbit polyclonal anti-Ptyr diluted 1:10,000 in Antibody Dilution Buffer to each well. Incubate, with shaking, at room temperature for one hour.
12. Wash plate 3× with TBST.
13. […] Add 100 μL per well and incubate at room temperature, with shaking, for one hour.
14. Wash plate 1× with PBS.
15. Add 100 μl of ABTS/H2O2 solution to each well.
16. If necessary, stop the development reaction with the addition of 100 μl of 0.2M HCl per well.
Met Transphosphorylation Assay Results

T1 sequence (P08581 1078-1345 limits assumed): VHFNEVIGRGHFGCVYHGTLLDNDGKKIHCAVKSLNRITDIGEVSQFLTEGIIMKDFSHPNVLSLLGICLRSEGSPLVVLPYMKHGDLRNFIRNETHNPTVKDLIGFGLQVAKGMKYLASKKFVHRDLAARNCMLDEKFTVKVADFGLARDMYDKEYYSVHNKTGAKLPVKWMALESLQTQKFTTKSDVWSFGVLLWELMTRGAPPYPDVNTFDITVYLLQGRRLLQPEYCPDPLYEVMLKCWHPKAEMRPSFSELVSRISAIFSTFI

| Structure (SMILES) | IC50 |
| --- | --- |
| Oc1ccc(Cc2nnc3ncc(-c4cccs4)nn23)cc1 [Example 2, 4-(6-Thiophen-2-yl-[1,2,4]triazolo[4,3-b][1,2,4]triazin-3-ylmethyl)-phenol] | 4 nM |
| Fc1ccc(Cc2nnc3ncc(-c4cccs4)nn23)cc1 [Example 5, 3-(4-Fluoro-benzyl)-6-thiophen-2-yl-[1,2,4]triazolo[4,3-b][1,2,4]triazine] | 13 nM |
| Fc1ccc(Cc2nnc3ncc(-c4ccc(Br)cc4)nn23)cc1 [Example 6, 6-(4-Bromo-phenyl)-3-(4-fluoro-benzyl)-[1,2,4]triazolo[4,3-b][1,2,4]triazine] | 45 nM |
| Cc1nn2c(Cc3ccc(O)cc3)nnc2nc1N [Example 9, 4-(7-Amino-6-methyl-[1,2,4]triazolo[4,3-b][1,2,4]triazin-3-ylmethyl)-phenol] | 830 nM |

Further lines, results first:

| IC50 | Structure (SMILES) |
| --- | --- |
| 50 nM | Fc1ccc(Cc2nnc3ncc(-c4ccccc4)nn23)cc1 [Example 4, 3-(4-Fluoro-benzyl)-6-phenyl-[1,2,4]triazolo[4,3-b][1,2,4]triazine] |
| 56 nM | Oc1ccc(Cc2nnc3nccnn23)cc1 [Example 7, 4-[1,2,4]Triazolo[4,3-b][1,2,4]triazin-3-ylmethyl-phenol] |
| > 20000 nM | Cc1nc2nnc(Cc3ccc(O)cc3)n2nc1C [Example 8, 4-(6,7-Dimethyl-[1,2,4]triazolo[4,3-b][1,2,4]triazin-3-ylmethyl)-phenol] |
